Experimental data taken from ChEMBL document CHEMBL1201861, “Genomics of Drug Sensitity in Cancer screening data, Wellcome Trust Sanger Institute”.

Key:
Assay in all cases: cells
Type in all cases: functional, cell-based, Homo sapiens
LB2518-MEL = settings: Homo sapiens, LB2518-MEL;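 note: growth inhibition of human LB2518-MEL cells, measured with a cell viability assay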
Description: SANGER: Inhibition of human LB2518-MEL cell growth in a cell viability assay.

KM-H2 = settings: Homo sapiens, KM-H2;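 note: growth inhibition of KM-H2 cells, read out by a cell viability assay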
Description: SANGER: Inhibition of human KM-H2 cell growth in a cell viability assay.

OMC-1 = settings: Homo sapiens, OMC-1;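 note: growth inhibition of the OMC-1 cell line, measured by a cell viability assay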
Description: SANGER: Inhibition of human OMC-1 cell growth in a cell viability assay.

NCI-H1838 = settings: Homo sapiens, NCI-H1838;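 note: growth inhibition of NCI-H1838 cells, determined with a cell viability readout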
Description: SANGER: Inhibition of human NCI-H1838 cell growth in a cell viability assay.

HOP-62 = settings: Homo sapiens, HOP-62;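 note: cell growth inhibition determined with a viability assay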
Description: SANGER: Inhibition of human HOP-62 cell growth in a cell viability assay.

OVCAR-4 = settings: Homo sapiens, OVCAR-4;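 note: growth inhibition of human OVCAR-4 cells, measured with a cell viability assay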
Description: SANGER: Inhibition of human OVCAR-4 cell growth in a cell viability assay.

SK-N-FI = settings: Homo sapiens, SK-N-FI;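 note: cell viability assay measuring growth inhibition of human SK-N-FI cells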
Description: SANGER: Inhibition of human SK-N-FI cell growth in a cell viability assay.

SJSA-1 = settings: Homo sapiens, SJSA-1;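 note: growth inhibition of human SJSA-1 cells, read out through a cell viability measurement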
Description: SANGER: Inhibition of human SJSA-1 cell growth in a cell viability assay.

LU-134-A = settings: Homo sapiens, LU-134-A
Description: SANGER: Inhibition of human LU-134-A cell growth in a cell viability assay.

PSN1 = settings: Homo sapiens, PSN1;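 note: suppression of growth of human PSN1 cells, read out by a cell viability assay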
Description: SANGER: Inhibition of human PSN1 cell growth in a cell viability assay.

EOL1 = settings: Homo sapiens, EOL1;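 note: growth inhibition of EoL-1 cells, read out by a cell viability assay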
Description: SANGER: Inhibition of human EoL-1-cell cell growth in a cell viability assay.

L-363 = settings: Homo sapiens, L-363
Description: SANGER: Inhibition of human L-363 cell growth in a cell viability assay.

U-266 = settings: Homo sapiens, U-266
Description: SANGER: Inhibition of human U-266 cell growth in a cell viability assay.

KY821 = settings: Homo sapiens, KY821;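 note: growth inhibition of human KY821 cells, read out by a cell viability assay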
Description: SANGER: Inhibition of human KY821 cell growth in a cell viability assay.

DJM-1 = settings: Homo sapiens, DJM-1;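 note: growth inhibition of human DJM-1 cells, read out by a cell viability assay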
Description: SANGER: Inhibition of human DJM-1 cell growth in a cell viability assay.

TK-10 = settings: Homo sapiens, TK-10;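 note: growth inhibition of TK-10 cells, read out in a cell viability assay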
Description: SANGER: Inhibition of human TK10 cell growth in a cell viability assay.

MZ2-MEL = settings: Homo sapiens, MZ2-MEL;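 note: growth inhibition of MZ2-MEL cells read out with a cell viability assay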
Description: SANGER: Inhibition of human MZ2-MEL cell growth in a cell viability assay.

SW872 = settings: Homo sapiens, SW872;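 note: growth inhibition of SW872 cells, read out by a viability assay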
Description: SANGER: Inhibition of human SW872 cell growth in a cell viability assay.

MHH-NB-11 = settings: Homo sapiens, MHH-NB-11;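 note: growth inhibition of human MHH-NB-11 cells, read out by a cell viability assay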
Description: SANGER: Inhibition of human MHH-NB-11 cell growth in a cell viability assay.

TE-5 = settings: Homo sapiens, TE-5;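 note: inhibition of cell growth, read out by a cell viability assay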
Description: SANGER: Inhibition of human TE-5 cell growth in a cell viability assay.

BB65-RCC = settings: Homo sapiens, BB65-RCC;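 note: growth inhibition of the cell line, measured with a cell viability assay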
Description: SANGER: Inhibition of human BB65-RCC cell growth in a cell viability assay.

ES7 = settings: Homo sapiens, ES7;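 note: growth inhibition of cultured human ES7 cells, read out as cell viability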
Description: SANGER: Inhibition of human ES7 cell growth in a cell viability assay.

LS-411N = settings: Homo sapiens, LS-411N
NB6 = settings: Homo sapiens, NB6;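 note: growth inhibition of NB6 cells, read out by a cell viability assay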
Description: SANGER: Inhibition of human NB6 cell growth in a cell viability assay.

TE-9 = settings: Homo sapiens, TE-9;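 note: cell growth inhibition, measured with a cell viability readout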
Description: SANGER: Inhibition of human TE-9 cell growth in a cell viability assay.

MPP-89 = settings: Homo sapiens, MPP-89;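 note: growth inhibition of human MPP-89 cells, read out with a cell viability assay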
Description: SANGER: Inhibition of human MPP-89 cell growth in a cell viability assay.

KG-1 = settings: Homo sapiens, KG-1;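 note: growth inhibition of KG-1 cells, read out by a cell viability assay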
Description: SANGER: Inhibition of human KG-1 cell growth in a cell viability assay.

K5 = settings: Homo sapiens, K5
Description: SANGER: Inhibition of human K5 cell growth in a cell viability assay.

LOX IMVI = settings: Homo sapiens, LOX IMVI
Description: SANGER: Inhibition of human LOXIMVI cell growth in a cell viability assay.

COLO-824 = settings: Homo sapiens, COLO-824
Description: SANGER: Inhibition of human COLO-824 cell growth in a cell viability assay.

NCI-H82 = settings: Homo sapiens, NCI-H82;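 note: growth inhibition of NCI-H82 cells, measured with a cell viability readout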
Description: SANGER: Inhibition of human NCI-H82 cell growth in a cell viability assay.

IST-MEL1 = settings: Homo sapiens, IST-MEL1;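 note: growth inhibition of the cell line, read out with a cell viability assay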
Description: SANGER: Inhibition of human IST-MEL1 cell growth in a cell viability assay.

KNS-81-FD = settings: Homo sapiens, KNS-81-FD;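 note: growth inhibition of KNS-81-FD cells, read out with a cell viability assay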
Description: SANGER: Inhibition of human KNS-81-FD cell growth in a cell viability assay.

NCI-H510A = settings: Homo sapiens, NCI-H510A;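 note: growth inhibition of NCI-H510A cells, read out with a cell viability assay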
Description: SANGER: Inhibition of human NCI-H510A cell growth in a cell viability assay.

C8166 = settings: Homo sapiens, C8166;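 note: growth inhibition of human C8166 cells measured by a cell viability assay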
Description: SANGER: Inhibition of human C8166 cell growth in a cell viability assay.

GB-1 = settings: Homo sapiens, GB-1;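 note: growth of GB-1 cells judged by a viability assay, IC50 marks the concentration inhibiting growth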
Description: SANGER: Inhibition of human GB-1 cell growth in a cell viability assay.

LNCaP-Clone-FGC = settings: Homo sapiens, LNCaP-Clone-FGC
Description: SANGER: Inhibition of human LNCaP-Clone-FGC cell growth in a cell viability assay.

RPMI-8866 = settings: Homo sapiens, RPMI-8866
Description: SANGER: Inhibition of human RPMI-8866 cell growth in a cell viability assay.

A3-KAW = settings: Homo sapiens, A3-KAW;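 note: growth inhibition of human A3-KAW cells, read out with a cell viability assay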
Description: SANGER: Inhibition of human A3-KAW cell growth in a cell viability assay.

KNS-42 = settings: Homo sapiens, KNS-42;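 note: growth inhibition of KNS-42 cells, read out with a cell viability assay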
Description: SANGER: Inhibition of human KNS-42 cell growth in a cell viability assay.

NCI-H23 = settings: Homo sapiens, NCI-H23;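 note: cell viability assay measuring growth inhibition of NCI-H23 cells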
Description: SANGER: Inhibition of human NCI-H23 cell growth in a cell viability assay.

LB771-HNC = settings: Homo sapiens, LB771-HNC;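 note: growth inhibition of LB771-HNC human cells, read out with a cell viability assay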
Description: SANGER: Inhibition of human LB771-HNC cell growth in a cell viability assay.

Mo = settings: Homo sapiens, Mo
Description: SANGER: Inhibition of human Mo-T cell growth in a cell viability assay.

SF-539 = settings: Homo sapiens, SF-539;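 note: Read-out is a cell viability assay, with IC50 reflecting inhibition of cell growth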
Description: SANGER: Inhibition of human SF539 cell growth in a cell viability assay.

ES5 = settings: Homo sapiens, ES5;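 note: growth inhibition of human ES5 cells, read out by a cell viability assay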
Description: SANGER: Inhibition of human ES5 cell growth in a cell viability assay.

LXF-289 cell line = settings: Homo sapiens, LXF-289
Description: SANGER: Inhibition of human LXF-289 cell growth in a cell viability assay.

IST-MES1 = settings: Homo sapiens, IST-MES1;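 note: growth inhibition of IST-MES1 cells, measured with a cell viability assay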
Description: SANGER: Inhibition of human IST-MES1 cell growth in a cell viability assay.

EW-16 = settings: Homo sapiens, EW-16;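 note: growth inhibition of human EW-16 cells, read out as cell viability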
Description: SANGER: Inhibition of human EW-16 cell growth in a cell viability assay.

BB49-HNC = settings: Homo sapiens, BB49-HNC;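 note: cell viability assay read-out, reported as inhibition of BB49-HNC cell growth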
Description: SANGER: Inhibition of human BB49-HNC cell growth in a cell viability assay.

For COc1cc(N2CCN(C)CC2)ccc1Nc1ncc2c(n1)N(C)c1ccccc1C(=O)N2C, the IC50 (LB2518-MEL) was > 8 µM, the IC50 (KM-H2) was > 8 µM and the IC50 (OMC-1) was > 8 µM. For the same compound, the IC50 (NCI-H1838) was > 8 µM, the IC50 (HOP-62) was 6.6 µM and the IC50 (OVCAR-4) was > 8 µM. For the same compound, the IC50 (SK-N-FI) was > 8 µM, the IC50 (SJSA-1) was > 8 µM and the IC50 (LU-134-A) was > 8 µM. The IC50 (PSN1) was > 8 µM, the IC50 (EOL1) was > 8 µM and the IC50 (L-363) was > 8 µM. For the same compound, the IC50 (U-266) was > 8 µM, the IC50 (KY821) was > 8 µM and the IC50 (DJM-1) was > 8 µM. For the same compound, the IC50 (TK-10) was > 8 µM, the IC50 (MZ2-MEL) was > 8 µM and the IC50 (SW872) was > 8 µM. The IC50 (MHH-NB-11) was > 8 µM, the IC50 (TE-5) was > 8 µM and the IC50 (BB65-RCC) was > 8 µM. The IC50 (ES7) was > 8 µM, the IC50 (LS-411N) was 7.05 µM and the IC50 (NB6) was > 8 µM. For the same compound, the IC50 (TE-9) was > 8 µM, the IC50 (MPP-89) was 4.5 µM and the IC50 (KG-1) was > 8 µM. For the same compound, the IC50 (K5) was > 8 µM, the IC50 (LOX IMVI) was > 8 µM and the IC50 (COLO-824) was > 8 µM. The IC50 (NCI-H82) was > 8 µM, the IC50 (IST-MEL1) was > 8 µM and the IC50 (KNS-81-FD) was > 8 µM. The IC50 (NCI-H510A) was > 8 µM, the IC50 (C8166) was > 8 µM and the IC50 (GB-1) was > 8 µM. The IC50 (LNCaP-Clone-FGC) was > 8 µM, the IC50 (RPMI-8866) was > 8 µM and the IC50 (A3-KAW) was 4.28 µM. For the same compound, the IC50 (KNS-42) was > 8 µM, the IC50 (NCI-H23) was > 8 µM and the IC50 (LB771-HNC) was > 8 µM. The IC50 (Mo) was > 8 µM, the IC50 (SF-539) was > 8 µM and the IC50 (ES5) was > 8 µM. For the same compound, the IC50 (LXF-289 cell line) was > 8 µM, the IC50 (IST-MES1) was > 8 µM and the IC50 (EW-16) was > 8 µM. For the same compound, the IC50 (BB49-HNC) was > 8 µM.

Oc1ccc2ccccc2c1SSc1c(O)ccc2ccccc12 was tested, and the IC50 (LB2518-MEL) was > 32 µM, the IC50 (KM-H2) was > 32 µM and the IC50 (OMC-1) was > 32 µM. The IC50 (NCI-H1838) was > 32 µM, the IC50 (HOP-62) was > 32 µM and the IC50 (OVCAR-4) was > 32 µM. For the same compound, the IC50 (SK-N-FI) was > 32 µM, the IC50 (SJSA-1) was > 32 µM and the IC50 (LU-134-A) was > 32 µM. The IC50 (PSN1) was > 32 µM, the IC50 (EOL1) was > 32 µM and the IC50 (L-363) was > 32 µM. For the same compound, the IC50 (U-266) was > 32 µM, the IC50 (KY821) was > 32 µM and the IC50 (DJM-1) was > 32 µM. For the same compound, the IC50 (TK-10) was > 32 µM, the IC50 (MZ2-MEL) was > 32 µM and the IC50 (SW872) was 7.84 µM. The IC50 (MHH-NB-11) was > 32 µM, the IC50 (TE-5) was > 32 µM and the IC50 (BB65-RCC) was > 32 µM. For the same compound, the IC50 (ES7) was > 32 µM, the IC50 (LS-411N) was > 32 µM and the IC50 (NB6) was 3.84 µM. The IC50 (TE-9) was > 32 µM, the IC50 (MPP-89) was > 32 µM and the IC50 (KG-1) was > 32 µM. The IC50 (K5) was > 32 µM, the IC50 (LOX IMVI) was > 32 µM and the IC50 (COLO-824) was > 32 µM. For the same compound, the IC50 (NCI-H82) was > 32 µM, the IC50 (IST-MEL1) was > 32 µM and the IC50 (KNS-81-FD) was > 32 µM. The IC50 (NCI-H510A) was > 32 µM, the IC50 (C8166) was > 32 µM and the IC50 (GB-1) was 2.63 µM. The IC50 (LNCaP-Clone-FGC) was > 32 µM, the IC50 (RPMI-8866) was > 32 µM and the IC50 (A3-KAW) was > 32 µM. For the same compound, the IC50 (KNS-42) was > 32 µM, the IC50 (NCI-H23) was > 32 µM and the IC50 (LB771-HNC) was > 32 µM. The IC50 (Mo) was > 32 µM, the IC50 (SF-539) was > 32 µM and the IC50 (ES5) was 12.3 µM. The IC50 (LXF-289 cell line) was > 32 µM, the IC50 (IST-MES1) was > 32 µM and the IC50 (EW-16) was 24.8 µM. For the same compound, the IC50 (BB49-HNC) was > 32 µM.

Cc1cc([N+](=O)[O-])ccc1NS(=O)(=O)c1cc(Cl)ccc1Cl was tested, and the IC50 (LB2518-MEL) was 1.16 µM, the IC50 (KM-H2) was 14.9 µM and the IC50 (OMC-1) was 8.57 µM. For the same compound, the IC50 (NCI-H1838) was > 32 µM, the IC50 (HOP-62) was 5.08 µM and the IC50 (OVCAR-4) was 4.61 µM. For the same compound, the IC50 (SK-N-FI) was 16.7 µM, the IC50 (SJSA-1) was 5.7 µM and the IC50 (LU-134-A) was > 32 µM. It also gave an IC50 (PSN1) of 3.22 µM, an IC50 (EOL1) of 4.95 µM and an IC50 (L-363) of 8.56 µM. For the same compound, the IC50 (U-266) was 22.9 µM, the IC50 (KY821) was > 32 µM and the IC50 (DJM-1) was 10.5 µM. For the same compound, the IC50 (TK-10) was 10.2 µM, the IC50 (MZ2-MEL) was 1.44 µM and the IC50 (SW872) was 4.95 µM. It also gave an IC50 (MHH-NB-11) of 20.7 µM, an IC50 (TE-5) of 6.73 µM and an IC50 (BB65-RCC) of 6.37 µM. The IC50 (ES7) was 11.1 µM, the IC50 (LS-411N) was 4.52 µM and the IC50 (NB6) was 13.5 µM. It also gave an IC50 (TE-9) of 2.69 µM, an IC50 (MPP-89) of 20.1 µM and an IC50 (KG-1) of 7 µM. For the same compound, the IC50 (K5) was 6.43 µM, the IC50 (LOX IMVI) was 13.9 µM and the IC50 (COLO-824) was 18.1 µM. For the same compound, the IC50 (NCI-H82) was 18 µM, the IC50 (IST-MEL1) was 11.2 µM and the IC50 (KNS-81-FD) was 21.2 µM. For the same compound, the IC50 (NCI-H510A) was 20.2 µM, the IC50 (C8166) was 6.1 µM and the IC50 (GB-1) was 2.19 µM. For the same compound, the IC50 (LNCaP-Clone-FGC) was 21.6 µM, the IC50 (RPMI-8866) was 3.32 µM and the IC50 (A3-KAW) was 8.78 µM. For the same compound, the IC50 (KNS-42) was 12.7 µM, the IC50 (NCI-H23) was > 32 µM and the IC50 (LB771-HNC) was 2.24 µM. For the same compound, the IC50 (Mo) was > 32 µM, the IC50 (SF-539) was 21 µM and the IC50 (ES5) was > 32 µM. For the same compound, the IC50 (LXF-289 cell line) was 5.36 µM, the IC50 (IST-MES1) was 4.85 µM and the IC50 (EW-16) was 4.59 µM. The IC50 (BB49-HNC) was > 32 µM.

Compound COc1cccc2c1C(=O)c1c(O)c3c(c(O)c1C2=O)C[C@@](O)(C(=O)CO)C[C@@H]3O[C@H]1C[C@H](N)[C@H](O)[C@H](C)O1 [DOXORUBICIN] has an IC50 (LB2518-MEL) of 0.413 µM, an IC50 (KM-H2) of 0.0907 µM and an IC50 (OMC-1) of 0.172 µM. The IC50 (NCI-H1838) was 0.405 µM, the IC50 (HOP-62) was 0.0359 µM and the IC50 (OVCAR-4) was 0.157 µM. For the same compound, the IC50 (SK-N-FI) was > 1.02 µM, the IC50 (SJSA-1) was 0.111 µM and the IC50 (LU-134-A) was 0.0677 µM. It also gave an IC50 (PSN1) of 0.0112 µM, an IC50 (EOL1) of 0.0278 µM and an IC50 (L-363) of 0.324 µM. For the same compound, the IC50 (U-266) was 0.451 µM, the IC50 (KY821) was > 1.02 µM and the IC50 (DJM-1) was 0.102 µM. It also gave an IC50 (TK-10) of 0.115 µM, an IC50 (MZ2-MEL) of 0.0339 µM and an IC50 (SW872) of 0.121 µM. It also gave an IC50 (MHH-NB-11) of 0.22 µM, an IC50 (TE-5) of 0.0375 µM and an IC50 (BB65-RCC) of 0.149 µM. The IC50 (ES7) was 0.0514 µM, the IC50 (LS-411N) was 0.0991 µM and the IC50 (NB6) was > 1.02 µM. For the same compound, the IC50 (TE-9) was 0.257 µM, the IC50 (MPP-89) was 0.393 µM and the IC50 (KG-1) was 0.362 µM. The IC50 (K5) was 0.0969 µM, the IC50 (LOX IMVI) was 0.389 µM and the IC50 (COLO-824) was > 1.02 µM. For the same compound, the IC50 (NCI-H82) was > 1.02 µM, the IC50 (IST-MEL1) was 0.0448 µM and the IC50 (KNS-81-FD) was 0.16 µM. It also gave an IC50 (NCI-H510A) of 0.36 µM, an IC50 (C8166) of 0.0333 µM and an IC50 (GB-1) of 0.213 µM. It also gave an IC50 (LNCaP-Clone-FGC) of 0.204 µM, an IC50 (RPMI-8866) of 0.192 µM and an IC50 (A3-KAW) of 0.0401 µM. For the same compound, the IC50 (KNS-42) was 0.243 µM, the IC50 (NCI-H23) was 0.284 µM and the IC50 (LB771-HNC) was > 1.02 µM. For the same compound, the IC50 (Mo) was 0.805 µM, the IC50 (SF-539) was 0.122 µM and the IC50 (ES5) was 0.0392 µM. It also gave an IC50 (LXF-289 cell line) of 0.109 µM, an IC50 (IST-MES1) of 0.323 µM and an IC50 (EW-16) of 0.00191 µM. The IC50 (BB49-HNC) was > 1.02 µM.
